Source: patent US20040029965A1, “Formulations for reducing or eliminating toxicity of enviromental hormones containing ursodeoxycholic acid” (priority 2000, published 2004)

System: C57B1/6J mice
Assay: Changes in body weight of mice after a single subcutaneous injection of TCDD
Format: in vivo
Conditions: for Weight (body weight): at sacrifice
Experimental: Male C57B1/6J mice of 5 weeks old having the average weight of 18-22 g which had been bred in CRJ (Charles River in Japan) were purchased and used in this example as experimental animals. Those mice were acclimated under the constant breeding condition, i.e. the temperature of 24±1° C., the humidity of 60±10% and the light and darkness cycle of 12 hours, for one week and thereafter, utilized in the experiment.
The Experimental animals were supplied with Purina powdered feed (purchased from Hae Eun Trade) and supplied with water ad libitum. All the animals were weighed twice a week during experimentation.
2,3,7,8-tetrachlorodibenzo-p-dioxin (TCDD) dissolved in toluene (purity of 95% or more as a result of gas chromatography analysis), manufactured by Chem. Services Inc. in USA, was volatilized with nitrogen to obtain powder. The obtained powder was dissolved in a mixed solvent containing acetone and corn oil with a volume ratio of 1:6. The resulting solution each containing 110, 27.5 and 6.9 μg/kg of TCDD was subcutaneously injected to mice at a volume of 5 ml per body weight. […] The mice were supplied with the feed from 10 days before (pre-administration) to 60 days after administration of TCDD (post-administration).
The results are expressed as Mean±Standard Deviation values. For statistical analysis of the body weight, feed and water uptake, biochemical findings, hematological findings and the weight of organ in an acute toxicity test, verification was performed by one way analysis of variance (ANOVA) in case of equal distribution. In case significance was recognized in ANOVA, the Student's t-test was performed in the levels of p<0.05 and p<0.01.

## C[C@H](CCC(=O)O)[C@H]1CC[C@H]2[C@@H]3[C@@H](O)C[C@@H]4C[C@H](O)CC[C@]4(C)[C@H]3CC[C@]12C [UDCA, 3α, 7β-dihydroxy-5β-cholanoic acid]
TCDD 6.9 μg/kg + UDCA 0.125 wt %, 0 day
  body weight: 19.77 ± 0.21
TCDD 6.9 μg/kg + UDCA 0.125 wt %, 12 days
  body weight: 21.95 ± 0.28
TCDD 6.9 μg/kg + UDCA 0.125 wt %, 22 days
  body weight: 23.16 ± 0.32
TCDD 6.9 μg/kg + UDCA 0.125 wt %, 32 days
  body weight: 24.15 ± 0.38
TCDD 6.9 μg/kg + UDCA 0.125 wt %, 39 days
  body weight: 25.21 ± 0.46
TCDD 6.9 μg/kg + UDCA 0.125 wt %, 50 days
  body weight: 26.62 ± 0.56
TCDD 6.9 μg/kg + UDCA 0.125 wt %, 59 days
  body weight: 27.06 ± 0.60
TCDD 6.9 μg/kg + UDCA 0.125 wt %
  Weight (body weight): 24.12 ± 1.83 g
TCDD 6.9 μg/kg + UDCA 0.25 wt %, 0 day
  body weight: 20.13 ± 0.34
TCDD 6.9 μg/kg + UDCA 0.25 wt %, 12 days
  body weight: 22.18 ± 0.38
TCDD 6.9 μg/kg + UDCA 0.25 wt %, 22 days
  body weight: 23.81 ± 0.43
TCDD 6.9 μg/kg + UDCA 0.25 wt %, 32 days
  body weight: 24.21 ± 0.47
TCDD 6.9 μg/kg + UDCA 0.25 wt %, 39 days
  body weight: 25.69 ± 0.45
TCDD 6.9 μg/kg + UDCA 0.25 wt %, 50 days
  body weight: 27.15 ± 0.46
TCDD 6.9 μg/kg + UDCA 0.25 wt %, 59 days
  body weight: 27.74 ± 0.48
TCDD 6.9 μg/kg + UDCA 0.25 wt %
  Weight (body weight): 24.72 ± 1.39 g
TCDD 6.9 μg/kg + UDCA 0.5 wt %, 0 day
  body weight: 19.97 ± 0.28
TCDD 6.9 μg/kg + UDCA 0.5 wt %, 12 days
  body weight: 21.81 ± 0.32
TCDD 6.9 μg/kg + UDCA 0.5 wt %, 22 days
  body weight: 23.26 ± 0.37
TCDD 6.9 μg/kg + UDCA 0.5 wt %, 32 days
  body weight: 24.28 ± 0.50
TCDD 6.9 μg/kg + UDCA 0.5 wt %, 39 days
  body weight: 25.22 ± 0.49
TCDD 6.9 μg/kg + UDCA 0.5 wt %, 50 days
  body weight: 27.15 ± 0.49
TCDD 6.9 μg/kg + UDCA 0.5 wt %, 59 days
  body weight: 27.06 ± 0.56
TCDD 6.9 μg/kg + UDCA 0.5 wt %
  Weight (body weight): 24.19 ± 1.38 g
TCDD 27.5 μg/kg + UDCA 0.125 wt %, 0 day
  body weight: 19.80 ± 0.25
TCDD 27.5 μg/kg + UDCA 0.125 wt %, 12 days
  body weight: 22.04 ± 0.26
TCDD 27.5 μg/kg + UDCA 0.125 wt %, 22 days
  body weight: 23.59 ± 0.28
TCDD 27.5 μg/kg + UDCA 0.125 wt %, 32 days
  body weight: 24.17 ± 0.33
TCDD 27.5 μg/kg + UDCA 0.125 wt %, 39 days
  body weight: 25.48 ± 0.36
TCDD 27.5 μg/kg + UDCA 0.125 wt %, 50 days
  body weight: 26.63 ± 0.28
TCDD 27.5 μg/kg + UDCA 0.125 wt %, 59 days
  body weight: 26.93 ± 0.34
TCDD 27.5 μg/kg + UDCA 0.125 wt %
  Weight (body weight): 24.58 ± 1.07 g
TCDD 27.5 μg/kg + UDCA 0.25 wt %, 0 day
  body weight: 19.96 ± 0.30
TCDD 27.5 μg/kg + UDCA 0.25 wt %, 12 days
  body weight: 22.22 ± 0.29
TCDD 27.5 μg/kg + UDCA 0.25 wt %, 22 days
  body weight: 23.56 ± 0.37
TCDD 27.5 μg/kg + UDCA 0.25 wt %, 32 days
  body weight: 24.34 ± 0.38
TCDD 27.5 μg/kg + UDCA 0.25 wt %, 39 days
  body weight: 25.38 ± 0.37
TCDD 27.5 μg/kg + UDCA 0.25 wt %, 50 days
  body weight: 26.94 ± 0.50
TCDD 27.5 μg/kg + UDCA 0.25 wt %, 59 days
  body weight: 27.27 ± 0.51
TCDD 27.5 μg/kg + UDCA 0.25 wt %
  Weight (body weight): 24.62 ± 1.44 g
TCDD 27.5 μg/kg + UDCA 0.5 wt %, 0 day
  body weight: 19.08 ± 0.20
TCDD 27.5 μg/kg + UDCA 0.5 wt %, 12 days
  body weight: 21.09 ± 0.32
TCDD 27.5 μg/kg + UDCA 0.5 wt %, 22 days
  body weight: 22.52 ± 0.33
TCDD 27.5 μg/kg + UDCA 0.5 wt %, 32 days
  body weight: 23.33 ± 0.32
TCDD 27.5 μg/kg + UDCA 0.5 wt %, 39 days
  body weight: 24.07 ± 0.34
TCDD 27.5 μg/kg + UDCA 0.5 wt %, 50 days
  body weight: 25.31 ± 0.43
TCDD 27.5 μg/kg + UDCA 0.5 wt %, 59 days
  body weight: 24.52 ± 0.42
TCDD 27.5 μg/kg + UDCA 0.5 wt %
  Weight (body weight): 22.15 ± 1.14 g
TCDD 110.0 μg/kg + UDCA 0.125 wt %, 0 day
  body weight: 19.48 ± 0.29
TCDD 110.0 μg/kg + UDCA 0.125 wt %, 12 days
  body weight: 19.40 ± 0.40
TCDD 110.0 μg/kg + UDCA 0.125 wt %, 22 days
  body weight: 18.44 ± 0.87
TCDD 110.0 μg/kg + UDCA 0.125 wt %, 32 days
  body weight: 12.61
TCDD 110.0 μg/kg + UDCA 0.125 wt %
  Weight (body weight): 15.93 g
TCDD 110.0 μg/kg + UDCA 0.25 wt %, 0 day
  body weight: 19.65 ± 0.44
TCDD 110.0 μg/kg + UDCA 0.25 wt %, 12 days
  body weight: 20.64 ± 0.50
